Laboratory results as given in publication PMC11111404, “Discovery of potent small-molecule inhibitors of lipoprotein(a) formation” (Nature, 2024).
Read-outs that look alike come from different tables or passages of the source. Each block holds one compound with its values, some of them ahead of it.

Experiments:
[1] = target: T1, Lp(a) assembly (recombinant human 16K apo(a) and apoB) (Homo sapiens, UniProt P08519); assay: In vitro Lp(a) assembly assay; type: biochemical
T1 construct: containing one KIV type 1, six KIV type 2 repeats, one each of KIV types 3–10 and one KV; expressed in transfected cells; host or cells: Conditioned medium of HEK293 (CRL-1573) stably expressing 16K apo(a), combined with conditioned medium of wild-type HepG2 (HB-8065) for endogenous apoB
Description: HepG2 cells (HB-8065, ATCC) were cultured in Dulbecco’s modified Eagle’s medium, supplemented with 10% fetal bovine serum, 20 mM 4-(2-hydroxyethyl)-1-piperazineethanesulfonic acid (HEPES) and 100 U ml^−1 penicillin–streptomycin. apoB-conditioned media were collected after 24 h of culture at 37 °C and 5% CO2 from confluent wild-type HepG2 cells that endogenously express and secrete apoB. Apo(a)-conditioned media were collected after 24 h of culture at 37 °C and 5% CO2 from HEK293 cells (CRL-1573, ATCC) that stably express and secrete recombinant human 16K apo(a) protein containing one KIV type 1, six KIV type 2 repeats, one each of KIV types 3–10 and one KV.
The assembly assay was conducted in 96-well polypropylene plates by combining HepG2 and apo(a)-HEK293-conditioned media in the presence of a range of compound concentrations. After a two-hour incubation period at 37 °C, the reaction was stopped by the addition of 6-aminocaproic acid. Lp(a) was detected using a sandwich enzyme-linked immunosorbent assay (ELISA), with a polyclonal goat anti-apo(a) capture antibody (Abcam ab31675) and a biotin-conjugated, polyclonal goat anti-apoB detection antibody (Abcam ab20898). In brief, ELISA plates were coated with 100 μl of the capture antibody at a 1:12,500 dilution (around 4 μg ml^−1) into HEPES-buffered saline (HBS), incubated overnight at 4 °C, washed and blocked by the addition of 200 μl of 1% casein. After removal of the blocking buffer, 20 μl of each of the assembly reactions or of a dilution series of purified human Lp(a) (Athens Research, 12-16-121601), diluted 1:5 into HBS supplemented with 0.5% casein, were added to the ELISA plate. […] Absorbance at 450 nm was measured on an Envision plate reader.
The concentration of Lp(a) formed in each test condition was determined on the basis of the standard curve constructed from the purified human Lp(a) used as a reference standard, and was normalized to high (buffer) and low (no apoB) controls. […] Data were analysed in GraphPad Prism v.9.5.1.

[2] = target: T2, apo(a) KIV5–8 (Homo sapiens, UniProt P08519); assay: ITC binding to apo(a) KIV5–8
T2 construct: made in house
T2 sequence (P08519 1043-1470 limits assumed): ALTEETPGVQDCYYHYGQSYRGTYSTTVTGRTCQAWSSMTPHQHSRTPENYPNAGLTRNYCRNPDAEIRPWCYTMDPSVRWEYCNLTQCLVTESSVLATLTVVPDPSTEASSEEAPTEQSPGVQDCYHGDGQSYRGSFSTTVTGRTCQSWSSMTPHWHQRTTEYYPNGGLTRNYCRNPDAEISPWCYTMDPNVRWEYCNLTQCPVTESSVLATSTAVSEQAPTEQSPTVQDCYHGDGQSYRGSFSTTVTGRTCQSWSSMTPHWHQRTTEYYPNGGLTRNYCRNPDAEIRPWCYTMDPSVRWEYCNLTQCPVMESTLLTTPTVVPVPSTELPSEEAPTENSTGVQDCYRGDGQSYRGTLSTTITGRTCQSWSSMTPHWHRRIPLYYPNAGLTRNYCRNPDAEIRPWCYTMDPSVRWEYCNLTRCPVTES
Description: (§1) The nucleotide sequence encoding the human LPA gene (NP_005568.2) was inserted into a mammalian expression vector containing a cytomegalovirus promoter. Protein expression was performed by transient transfection of human embryonic kidney 293 (HEK293) cells cultured in serum-free medium. The culture medium was collected five days after transfection and human apo(a) protein was purified using L-lysine affinity chromatography. Nucleotide sequences encoding various KIV domains of human apo(a) and human and rat plasminogen were inserted into a pET21a Escherichia coli expression vector. Bacterial BL21(DE3) was used as the expression host, and the induction of protein expression was performed in 2× TY medium with 1 mM isopropyl β-D-1-thiogalactopyranoside at 37 °C for 5 h. Cells were collected and stored at –80 °C for subsequent protein purification and refolding. […] All protein concentrations were determined by A280.
Experiments were performed on a MicroCal Auto-iTC200 titration calorimeter (Malvern Panalytical), with a cell volume of 200 μl and a 40-μl microsyringe. […] The microsyringe was loaded with a solution of the respective compounds, with the concentration measured by quantitative nuclear magnetic resonance, and was inserted into the calorimetric cell prefilled with the respective recombinant proteins of known concentration in ITC buffer. […]

[3] = system: rat plasminogen; assay: Saturation radioligand binding to rat plasminogen
Description: (§2) Full-length apo(a) and various shorter constructs were prepared as described. Human and rat plasminogen, purified from plasma by affinity chromatography, were obtained from Innovative Research (IHGPG and IRPLG, respectively).
(§3) All reagents used in the binding assays were prepared in assay buffer containing 50 mM Tris-HCl, pH 7.4, and 0.1% bovine serum albumin. All apo(a) proteins were diluted to a final concentration of 200 pM. Human and rat plasminogen were diluted into assay buffer, and 250 ng was added to each well.
(§4) Saturation binding studies of ^3H-LSN3441732 or ^3H-LSN3374443 were conducted by adding to each well of a white-wall, clear-bottom 96-well plate, 50 µl each of (1) dimethyl sulfoxide (DMSO) or a saturating concentration (40 μM) of an unlabelled ligand; (2) protein diluted into assay buffer; (3) resuspended wheat germ agglutinin polyvinyltoluene scintillation proximity assay beads (2 mg ml^−1); and (4) a dilution series of radioligand. Plates were incubated for one to two hours at room temperature and counted on a Wallac Trilux 1450 liquid scintillation counter. Non-specific binding, defined as binding in the presence of the unlabelled ligand, was subtracted to determine specific binding. […]

[4] = target: T3, full-length recombinant 16K apo(a) (Homo sapiens, UniProt P08519); assay: Radioligand binding to full-length recombinant 16K apo(a)
T3 construct: Full-length apo(a) and various shorter constructs were prepared as described; made in house
Description: (§5) The nucleotide sequence encoding the human LPA gene (NP_005568.2) was inserted into a mammalian expression vector containing a cytomegalovirus promoter. Protein expression was performed by transient transfection of human embryonic kidney 293 (HEK293) cells cultured in serum-free medium. The culture medium was collected five days after transfection and human apo(a) protein was purified using L-lysine affinity chromatography. Nucleotide sequences encoding various KIV domains of human apo(a) and human and rat plasminogen were inserted into a pET21a Escherichia coli expression vector. Bacterial BL21(DE3) was used as the expression host, and the induction of protein expression was performed in 2× TY medium with 1 mM isopropyl β-D-1-thiogalactopyranoside at 37 °C for 5 h. Cells were collected and stored at –80 °C for subsequent protein purification and refolding. The frozen cell pellets were lysed and inclusion bodies were purified. The protein refolding was performed using the rapid-dilution method, and the refolded proteins were further purified by size-exclusion chromatography. All protein concentrations were determined by A280.
as §2, §3
Saturation binding studies of ^3H-LSN3441732 or ^3H-LSN3374443 were conducted by adding to each well of a white-wall, clear-bottom 96-well plate, 50 µl each of (1) dimethyl sulfoxide (DMSO) or a saturating concentration (40 μM) of an unlabelled ligand; (2) protein diluted into assay buffer; (3) resuspended wheat germ agglutinin polyvinyltoluene scintillation proximity assay beads (2 mg ml^−1); and (4) a dilution series of radioligand. Plates were incubated for one to two hours at room temperature and counted on a Wallac Trilux 1450 liquid scintillation counter. Non-specific binding, defined as binding in the presence of the unlabelled ligand, was subtracted to determine specific binding. Specific binding was plotted as a function of ligand concentration, and a single-site binding equation of the form y = Bmax × x/(Kd + x) was fitted to the data, where Bmax is the maximum saturable binding and Kd is the equilibrium dissociation constant.

[5] = target: T4, apo(a) KIV7 (Homo sapiens, UniProt P08519); assay: Radioligand binding to apo(a) KIV7
T4 construct: made in house
Description: as §5, §2
(§6) All reagents used in the binding assays were prepared in assay buffer containing 50 mM Tris-HCl, pH 7.4, and 0.1% bovine serum albumin. […]
as §4, with “counter.” for “counter. Non-specific binding, defined as binding in the presence of the unlabelled ligand, was subtracted to determine specific binding.”

[6] = target: T5, apo(a) KIV7–8 (Homo sapiens, UniProt P08519); assay: Radioligand binding to apo(a) KIV7–8
T5 construct: purified recombinant apo(a) KIV7–8 protein; made in house
T5 sequence (P08519 1263-1470 limits assumed): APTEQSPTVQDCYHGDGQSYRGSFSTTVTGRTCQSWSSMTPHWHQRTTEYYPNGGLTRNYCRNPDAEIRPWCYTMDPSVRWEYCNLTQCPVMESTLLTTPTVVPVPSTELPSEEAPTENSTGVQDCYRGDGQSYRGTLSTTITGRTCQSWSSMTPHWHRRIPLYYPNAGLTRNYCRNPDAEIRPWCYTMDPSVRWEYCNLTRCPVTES
Description: as §5, §2, §6
as §4, with “counter.” for “counter. Non-specific binding, defined as binding in the presence of the unlabelled ligand, was subtracted to determine specific binding.”

[7] = target: T6, apo(a) KIV8 (Homo sapiens, UniProt P08519); assay: Radioligand binding to apo(a) KIV8
T6 construct: made in house
T6 sequence (P08519 1387-1465 limits assumed): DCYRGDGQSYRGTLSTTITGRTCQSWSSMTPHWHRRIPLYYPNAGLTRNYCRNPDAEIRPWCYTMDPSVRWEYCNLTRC
Description: as §1, with “h.” for “h. Cells were collected and stored at –80 °C for subsequent protein purification and refolding.”, “A280. […]” for “A280.”
as §4, with “counter.” for “counter. Non-specific binding, defined as binding in the presence of the unlabelled ligand, was subtracted to determine specific binding.”

[8] = target: T2, apo(a) KIV5–8; assay: Radioligand binding to apo(a) KIV5–8; details: Experiment 1, read-out: Kd (nM) KIV5–8 Exp 1
Description: as §1, with “h.” for “h. Cells were collected and stored at –80 °C for subsequent protein purification and refolding.”, “A280. […]” for “A280.”
as §4, with “counter.” for “counter. Non-specific binding, defined as binding in the presence of the unlabelled ligand, was subtracted to determine specific binding.”

[9] = system: Lp(a); details: humans; cited from earlier work
[10] = target: apo(a) KIV7; set-up: method as in PMID 11802713; details: binding to lysine-binding domain of apo(a) KIV7; cited from earlier work
[11] = system: Lp(a) assembly; set-up: method as in PMID 11802713; details: cited from earlier work

T3 sequence (P08519 20-2040): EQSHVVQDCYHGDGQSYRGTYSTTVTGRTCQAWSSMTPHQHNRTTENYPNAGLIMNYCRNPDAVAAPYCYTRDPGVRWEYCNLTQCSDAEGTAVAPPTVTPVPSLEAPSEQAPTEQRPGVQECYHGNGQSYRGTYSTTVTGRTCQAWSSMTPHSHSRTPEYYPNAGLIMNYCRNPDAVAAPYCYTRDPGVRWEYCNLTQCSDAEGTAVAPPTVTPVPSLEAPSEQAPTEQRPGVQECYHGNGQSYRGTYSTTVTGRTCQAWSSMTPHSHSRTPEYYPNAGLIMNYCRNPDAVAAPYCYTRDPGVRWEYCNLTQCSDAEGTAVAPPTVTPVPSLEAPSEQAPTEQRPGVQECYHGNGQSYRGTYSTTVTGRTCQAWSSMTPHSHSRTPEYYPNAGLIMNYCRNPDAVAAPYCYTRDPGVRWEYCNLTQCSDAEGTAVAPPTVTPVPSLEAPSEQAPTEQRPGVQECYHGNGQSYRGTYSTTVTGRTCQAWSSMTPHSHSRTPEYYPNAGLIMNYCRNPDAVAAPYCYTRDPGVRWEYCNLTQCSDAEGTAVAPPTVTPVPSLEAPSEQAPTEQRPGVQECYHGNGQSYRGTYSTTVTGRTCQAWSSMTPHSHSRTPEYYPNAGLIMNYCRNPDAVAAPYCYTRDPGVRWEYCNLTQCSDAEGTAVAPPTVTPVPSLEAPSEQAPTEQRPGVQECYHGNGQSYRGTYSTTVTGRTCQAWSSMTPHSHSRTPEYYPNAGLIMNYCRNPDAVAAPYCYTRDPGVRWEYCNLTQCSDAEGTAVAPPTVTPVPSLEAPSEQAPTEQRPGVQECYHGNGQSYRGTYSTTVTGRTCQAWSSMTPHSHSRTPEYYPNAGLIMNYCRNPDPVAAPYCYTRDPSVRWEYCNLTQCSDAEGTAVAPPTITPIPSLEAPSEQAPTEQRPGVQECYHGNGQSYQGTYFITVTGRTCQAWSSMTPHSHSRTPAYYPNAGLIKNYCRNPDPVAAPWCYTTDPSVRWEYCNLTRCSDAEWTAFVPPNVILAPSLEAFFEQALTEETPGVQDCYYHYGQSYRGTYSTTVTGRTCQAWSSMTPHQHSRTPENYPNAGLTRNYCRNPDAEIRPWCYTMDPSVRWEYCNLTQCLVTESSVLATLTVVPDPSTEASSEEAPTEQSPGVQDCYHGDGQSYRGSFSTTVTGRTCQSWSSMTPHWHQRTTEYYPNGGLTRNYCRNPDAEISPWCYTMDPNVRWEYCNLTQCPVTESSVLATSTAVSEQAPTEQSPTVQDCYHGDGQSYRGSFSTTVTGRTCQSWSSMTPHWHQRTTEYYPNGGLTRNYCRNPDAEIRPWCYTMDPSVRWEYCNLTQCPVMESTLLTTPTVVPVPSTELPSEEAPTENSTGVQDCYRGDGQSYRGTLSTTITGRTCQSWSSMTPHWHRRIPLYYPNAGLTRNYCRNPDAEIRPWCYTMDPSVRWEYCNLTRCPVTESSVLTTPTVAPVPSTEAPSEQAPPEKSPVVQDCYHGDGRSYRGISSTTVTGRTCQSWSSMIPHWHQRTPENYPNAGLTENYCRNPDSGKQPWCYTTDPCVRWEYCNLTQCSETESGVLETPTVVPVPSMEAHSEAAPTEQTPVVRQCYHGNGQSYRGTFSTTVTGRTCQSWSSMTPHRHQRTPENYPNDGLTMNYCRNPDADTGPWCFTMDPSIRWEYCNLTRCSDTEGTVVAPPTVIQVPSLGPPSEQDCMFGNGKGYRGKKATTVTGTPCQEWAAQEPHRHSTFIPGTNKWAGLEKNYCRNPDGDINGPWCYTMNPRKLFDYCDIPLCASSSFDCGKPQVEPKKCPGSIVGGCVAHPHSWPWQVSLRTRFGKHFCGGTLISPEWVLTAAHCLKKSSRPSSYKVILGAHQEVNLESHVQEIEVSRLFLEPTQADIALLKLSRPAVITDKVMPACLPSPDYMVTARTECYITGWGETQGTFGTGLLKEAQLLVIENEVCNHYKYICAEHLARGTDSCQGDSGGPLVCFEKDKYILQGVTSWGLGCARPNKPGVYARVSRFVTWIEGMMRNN
T1 sequence (P08519 20-2040): as above

IC50 [1]: 36 nM
Kd [2]: < 15 nM
Structure (SMILES): COc1cccc(N2CCN(c3cccc(C[C@H](C(=O)O)[C@H]4CCNC4)c3)C2=O)c1 [LSN3374443]

fold higher affinity for rat plasminogen than for human plasminogen [3]: 50 fold
Bmax, full-length apo(a) ([4]; direct radioligand binding): 4.9 fmol ng^−1 apo(a)
Kd ([4]; direct radioligand binding, mean): 0.05 nM
ligands per molecule of apo(a) ([4]; from Bmax): one
fold affinity increase versus ^3H-LSN3374443 ([4]; full-length apo(a)): 50 fold
Kd ([5]; direct radioligand binding, read-out: Kd, single KIV7): 2.8 nM
Kd ([5]; radioligand binding, Experiment 1, read-out: Kd (nM) KIV7 Exp 1): 3 nM
Kd ([5]; radioligand binding, Experiment 2, read-out: Kd (nM) KIV7 Exp 2): 2.7 nM
Kd ([6]; direct radioligand binding, read-out: Kd, KIV7–8): 0.21 nM
Kd ([6]; radioligand binding, Experiment 1, read-out: Kd (nM) KIV7–8 Exp 1): 0.32 nM
Kd ([6]; radioligand binding, Experiment 2, read-out: Kd (nM) KIV7–8 Exp 2): 0.1 nM
Kd ([7]; direct radioligand binding, read-out: Kd, single KIV8): 2 nM
Kd ([7]; radioligand binding, Experiment 1, read-out: Kd (nM) KIV8 Exp 1): 3 nM
Kd [8]: 0.33 nM
Structure (SMILES): O=C(Nc1cccc(C[C@H](C(=O)O)[C@H]2CCNC2)c1)Nc1cccc(C[C@H](C(=O)O)[C@H]2CCNC2)c1 [^3H-LSN3441732]

Structure (SMILES): NC[C@H]1CC[C@H](C(=O)O)CC1 [tranexamic acid]
levels of Lp(a) in a small clinical study [9]: reduce the levels of Lp(a)
Kd [10]: 63000 nM
in vitro assembly of Lp(a) [11]: inhibited

Structure (SMILES): NCCCCCC(=O)O [ε-aminocaproic acid]
Kd [10]: 230000 nM
in vitro assembly of Lp(a) [11]: inhibited
